Results reported in US20250000952A1, “POLYPEPTIDE BASED ON RECEPTOR-INTERACTING PROTEIN KINASE-3 METHYLATION MODIFICATION AND APPLICATION THEREOF IN CELL NECROPTOSIS-RELATED DISEASES” (Air Force Medical University of the People's Liberation Army, priority 2023, published 2025).
“Also recorded” adds a separate entry of the source.

Experiments:
[1] = tested on: mouse L929 cells; experiment: Membrane penetrating experiment (fluorescence microscopy of FITC-labeled polypeptide); type: cell-based; conditions: 20 μM polypeptide, 24 hours
Protocol: Under the condition of necroptosis activation, it is observed whether the symmetrical dimethyl modified polypeptide fragment is capable of reducing the necroptosis and protecting cells from death. 20 μM polypeptide is added to mouse L929 cells for 24 hours, and the efficiency of polypeptide entering the target cells is analyzed by fluorescence microscope, with the scale of 275 μm, and the results are shown in FIG. 1A-FIG. 1B.

[2] = tested on: mouse fibroblast L929; experiment: Necroptosis stimulation experiment, cell morphology after TNF-α + Z-VAD; type: cell-based; conditions: L929, TNF-α (20 ng/mL)+Z-VAD (20 μM), polypeptide 20 μM, compared with TAT-mRIP3
Protocol: The necroptosis induced by TNF-α (20 ng/mL)+Z-VAD (20 μM) is in mouse fibroblast L929, and polypeptide (20 μM) is added to intervene. After 12 hours treatment, the morphological changes of the cell are analyzed: Dimethyl sulfoxide (DMSO) is used as control group); the scale is 20 μm.
After 12 hours, the necroptosis of the cells is stimulated.

[3] = tested on: pRIP1, pRIP3 and pMLKL; experiment: Protein detection of necroptosis marker molecules after TNF-α + Z-VAD; type: cell-based, mouse; conditions: L929, TNF-α (20 ng/ml)+Z-VAD (20 μM), peptide 10 μM, 20 μM and 50 μM, 12 hours
Protocol: Furthermore, the necroptosis reaction in cells is detected. Mouse fibroblast L929 is treated with the classic cell necroptosis inducer TNF-α (20 ng/ml)+Z-VAD (20 μM), and at the same time, the peptides TAT (20 μM), TAT-mRIP3-WT and TAT-mRIP3-SDMA (10, 20 and 50 μM) are added. Cell samples are collected for protein detection after 12 hours.

[4] = tested on: Prmt5^iIEC-KO mice; experiment: Survival (lifetime) analysis of tamoxifen-induced Prmt5 knockout mice; type: in vivo, mouse; conditions: tamoxifen 75 mg/kg, polypeptide 10 mg/kg intraperitoneally once a day until death, ** p<0.01
Protocol: Tamoxifen-induced mouse intestinal epithelial cell-specific gene knockout mice (Prmt5^iIEC-KO) are used. Tamoxifen is given (75 mg/kg) to mice at age of 8 weeks to induce Prmt5 gene knockout and cell necroptosis (intraperitoneal injection, once a day, for 5 days). Using Prmt5^iIEC-KO, while tamoxifen is injected to induce Prmt5 gene knockout, mice are injected with different types and concentrations of peptides intraperitoneally, and the survival cycle of mice is analyzed, ** p<0.01. Mice are injected intraperitoneally with 10 mg/kg polypeptide once a day until the mice die.

[5] = tested on: intestinal tissues of Prmt5^iIEC-KO mice; experiment: HE histological analysis of mouse intestine; type: in vivo; conditions: compared with TAT and unmodified (TAT-mRIP3) polypeptide group

TAT-mRIP3-SDMA: GRKKRRQRRRPQQAQFGRG (SDMA) GWQPFHK; cell-penetrating peptide TAT connected to mouse RIP3 peptide with symmetric di-methylated arginine 479
efficiency of polypeptide entering the target cells (fluorescence intensity) [1]: capable of entering mouse lung fibroblast L929
protection against necroptosis / cell death (cell morphology) [2]: reducing cell death; also recorded: obvious protective effect
expression levels of pRIP1, pRIP3 and pMLKL [3]: decreasing the expression levels; also recorded: lower than control group
lifetime of mice [4]: significantly prolonged
intestinal tissue necrosis and intestinal cavity structure (HE staining) [5]: significant protective effect
